Assay results as given in patent US20210270801A1, “TOPOGRAPHICALLY GUIDED CELL MIGRATION DEVICES AND METHODS” (priority 2018, published 2021).

System: MCF10A cells
Assay: Impedimetric collective cell migration assay with proliferation inhibitor
Type: cell-based
Conditions: 1 ng/ml
Method: In experiments designed to validate the proper functioning of devices, systems and methods for CMAPs of the present disclosure, MCF10A cells, a non-tumorigenic mammary epithelial cell line, were chosen as the cell model to validate whether a Nafion-nanotextured substrate is suitable for cell growth and migration. Cell monolayers were grown to cover a half of the area of each well to achieve a uniform condition at the beginning of the experiment. An elastomeric silicone (polydimethylsiloxane or PDMS) block was attached to the Nafion-patterned surface in each well, and then the MCF10A cells were seeded into the notch of the PDMS block at a seeding density of 20,000 cells per well. After 24 hours of incubation, the cells grew into a cell monolayer in the cell-seeding region and the PDMS block in each well was removed to initiate an impedimetric recording of collective cell migration. Cells migrated collectively as a cell sheet in a migration direction toward the other side of the well along the direction of nanogrooves and reached the end of the nanotextured migration area after 60-hour of migration.
Additional validation studies were carried out to determine whether collective cell migration behaviors are affected by the nanotextured cell-interface surface, which mimics the topography of in vivo cell migration microenvironment. MCF10A cells were grown on both nanotextured and untextured surfaces and the distances between the cell sheet border at 0 hour and 60 hours were measured.
Identifying effective drugs that target tumor metastasis is one of the ultimate goals of cancer migration assays. For this reason, a CMAP of the present disclosure was used to assess its capability to detect drug effects by using widely applied inhibitors. In this experiment, 1 ng/ml mitomycin C was used to inhibit MCF10A cell proliferation to determine whether collective cell migration is still faster on Nafion-nanotextured surfaces than on the untextured surfaces, after eliminating proliferation as a confounding factor.

`CO[C@@]12[C@H](COC(N)=O)C3=C(C(=O)C(C)=C(N)C3=O)N1C[C@@H]1N[C@@H]12` [mitomycin C] was tested, and the collective migration (Nafion-nanotextured (NP) surface, compared with UP untreated, P<0.05) was “continued to migrate with alacrity, even outpacing their UP untreated counterparts”, the “collective migration after proliferation inhibition” value (both nanotextured (NP) and untextured (UP) groups, impedance at 10 kHz) was “substantially slowed but did not inhibit collective migration” and the “collective migration / change in impedance over the duration” value (untextured (UP) surface) was “migrated minimally as expected with no significant change in impedance”.
